According to patent publication US20160108004A1, “TREATMENT OR PREVENTION OF NEURODEGENERATIVE DISORDERS USING MENTHOL, LINALOOL AND/OR ICILIN” (NESTEC S.A., priority 2013, published 2016):

Tests used:
[1] = test system: Lateral Amygdala glutamatergic neuron; test: whole cell, current clamp recordings with increasing concentration of gabazine (spontaneous action potential bursts); format: cell-based, mouse
Source text: (§1) A mouse brain slice was used to study the effects of Menthol, Linalool and Icilin. The amygdaloid complex is located within the medial temporal lobe in neocortex and amygdala. The lateral and basolateral nuclei of the amygdaloid complex receive sensory information from cortical and thalamic structures, process the information, and then transmit the information, either directly or through the basal nucleus, to the central nucleus. For experimental analysis of neural activity, synaptic responses from the basolateral complex can be evoked electrically using electrodes, and the action potentials can be measured.

[2] = test system: Lateral Amygdala glutamatergic neuron; test: whole cell, current clamp recordings in a Lateral Amygdala glutamatergic neuron (mouse brain slice); format: cell-based; settings: for inactivation of the sodium fast channels relative to control: square pulse of 2.5 s at high depolarization of membrane potential (approximately −30 mV), FIG. 2
Source text: as §1
A square pulse of 2.5 s was applied at high depolarization of membrane potential (approximately −30 mV).

Row | SMILES | spontaneous action potential bursts ([1]; increasing concentrations of gabazine applied extracellularly, recordings of 5 min each, washout 10 min, FIG. 3) | amount of current required to trigger an action potential [2] | threshold to trigger an action potential [2] | action potentials at higher stimulation levels [2] | inactivation of the sodium fast channels relative to control [2] | spontaneous bursts in the presence of gabazine ([1]; Menthol 250 μM applied extracellularly 10 minutes previous to and during exposure to increasing concentrations of gabazine, FIG. 5 compared to FIG. 3)
1 | COc1ccc(-c2ccc(=N)n(CCCC(=O)O)n2)cc1 [gabazine, reference compound] | neurons spontaneously present action potential bursts | – | – | – | – | –
2 | O=C1NC(c2cccc([N+](=O)[O-])c2)=CCN1c1ccccc1O [Icilin] | – | increase the amount of current required to trigger an action potential | increase the threshold to trigger an action potential | abort action potentials at higher stimulation levels | inactivation of the sodium fast channels happens sooner relative to control | –
3 | C=CC(C)(O)CCC=C(C)C (centres unmarked) [Linalool] | – | increase the amount of current required to trigger an action potential | increase the threshold to trigger an action potential | abort action potentials at higher stimulation levels | inactivation of the sodium fast channels happens sooner relative to control | –
4 | CC1CCC(C(C)C)C(O)C1 (centres unmarked) [Menthol] | – | increase the amount of current required to trigger an action potential | increase the threshold to trigger an action potential | abort action potentials at higher stimulation levels | inactivation of the sodium fast channels happens sooner relative to control | complete absence or a strongly decreased presence of spontaneous bursts
